What all share (experiment): CXCR6 receptor antagonists, dose response, cell-based, beta-arrestin, DiscoveRx, APJ panel, uHTS hits (AID 624129)
The target in test [1] is Apelin receptor (Homo sapiens) (UniProt P35414). Particulars: CXCR6 beta-arrestin (DiscoveRx) antagonist cell assay, APJ.
For test [2], the target named is Beta-galactosidase (Escherichia coli) (UniProt Q8VNN2). Particulars: CXCR6 beta-arrestin (DiscoveRx) antagonist cell assay, b-galactosidase.
In test [3] the target is C-C chemokine receptor type 6 (Homo sapiens) (UniProt P51684). Particulars: CXCR6 beta-arrestin (DiscoveRx) antagonist cell assay.
Test [4] has as its target C-X-C chemokine receptor type 6 (Homo sapiens) (UniProt O00574). Conditions: CXCR6 beta-arrestin (DiscoveRx) antagonist cell assay.
The mark [5] stands for this setting: dose range 1, mean IC50 across replicates.
The mark [6] stands for this setting: CCR6, dose range 1, mean IC50 across replicates.
Where [7] appears, read: CXCR6, dose range 1, mean IC50 across replicates.

The text below walks through data of PubChem BioAssay AID624129 (Sanford-Burnham Center for Chemical Genomics, 2012).

Calls of active or inactive are those of the source. How the calls were made is not given here.

C-X-C chemokine receptor type 6 (Homo sapiens), sequence (O00574 whole entry, looked up): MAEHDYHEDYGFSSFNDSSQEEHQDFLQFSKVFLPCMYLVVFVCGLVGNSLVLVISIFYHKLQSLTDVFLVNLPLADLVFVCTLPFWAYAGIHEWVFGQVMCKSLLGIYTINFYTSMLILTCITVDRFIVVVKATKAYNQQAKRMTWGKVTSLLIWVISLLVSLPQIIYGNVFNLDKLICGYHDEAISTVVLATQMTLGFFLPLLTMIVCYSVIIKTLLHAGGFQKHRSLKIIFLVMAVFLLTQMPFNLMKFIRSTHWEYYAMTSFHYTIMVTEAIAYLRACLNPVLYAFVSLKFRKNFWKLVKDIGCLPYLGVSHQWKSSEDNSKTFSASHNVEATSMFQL
Beta-galactosidase (Escherichia coli), sequence (Q8VNN2 whole entry, looked up): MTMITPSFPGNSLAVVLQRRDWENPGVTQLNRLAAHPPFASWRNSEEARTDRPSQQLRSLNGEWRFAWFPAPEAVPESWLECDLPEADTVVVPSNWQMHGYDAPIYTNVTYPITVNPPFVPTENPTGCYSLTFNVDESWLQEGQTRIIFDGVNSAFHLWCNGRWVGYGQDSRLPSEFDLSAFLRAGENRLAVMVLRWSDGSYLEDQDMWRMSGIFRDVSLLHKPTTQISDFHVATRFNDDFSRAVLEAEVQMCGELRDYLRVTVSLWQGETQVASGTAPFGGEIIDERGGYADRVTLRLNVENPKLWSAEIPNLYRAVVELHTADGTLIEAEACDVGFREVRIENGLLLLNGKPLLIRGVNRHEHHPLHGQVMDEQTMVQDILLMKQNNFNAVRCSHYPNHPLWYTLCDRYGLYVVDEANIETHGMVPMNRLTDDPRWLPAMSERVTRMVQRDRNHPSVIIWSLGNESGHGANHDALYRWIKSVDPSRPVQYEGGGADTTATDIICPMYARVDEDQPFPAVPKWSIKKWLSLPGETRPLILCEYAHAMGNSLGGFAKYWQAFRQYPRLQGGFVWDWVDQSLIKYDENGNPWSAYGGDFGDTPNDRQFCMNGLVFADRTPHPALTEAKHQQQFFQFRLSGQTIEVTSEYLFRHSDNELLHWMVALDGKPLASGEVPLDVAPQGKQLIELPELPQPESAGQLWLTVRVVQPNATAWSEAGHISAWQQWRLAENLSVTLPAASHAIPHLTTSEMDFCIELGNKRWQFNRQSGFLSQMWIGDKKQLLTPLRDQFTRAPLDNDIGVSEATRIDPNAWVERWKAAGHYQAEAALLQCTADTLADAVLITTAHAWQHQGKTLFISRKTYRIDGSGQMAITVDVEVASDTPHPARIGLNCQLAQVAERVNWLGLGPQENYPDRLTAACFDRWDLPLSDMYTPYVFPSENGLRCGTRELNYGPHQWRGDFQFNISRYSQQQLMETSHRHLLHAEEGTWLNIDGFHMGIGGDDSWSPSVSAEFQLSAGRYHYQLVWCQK

On to `CCOC(=O)CSc1cccc2cccnc12`, for which the IC50 (usually the concentration that gives 50% inhibition) in test [1] (dose range 1) was 4.5 µM; in test [1] (setting [5]) it was 5.48 µM; in test [1] (run 2, dose range 1), 6.81 µM; in test [1] (run 3, dose range 1), 5.13 µM; in test [2] (dose range 1), > 80 µM (inactive); in test [2] (setting [5]) it was more than 80 µM. Further, the 50% inhibitory concentration (IC50) is 4.64 µM in test [3] (CCR6, dose range 1); 5.27 µM in test [3] (setting [6]); 5.89 µM in test [3] (CCR6, run 2, dose range 1); 7.12 µM in test [4] (CXCR6, dose range 1); 5.86 µM in test [4] (setting [7]); 3.95 µM in test [4] (CXCR6, run 1, dose range 2). Moreover, the half-maximal inhibitory concentration (IC50) in test [4] (CXCR6, run 2, dose range 1) came to 8.08 µM; in test [4] (CXCR6, run 2, dose range 2), 4.32 µM.

Regarding `CCCOc1cccc(-c2cc(C(=O)N/N=C/c3ccccn3)c3ccccc3n2)c1`, the IC50 was 5.48 µM in test [1] (dose range 1); 7.37 µM in test [1] (setting [5]); 9.25 µM in test [1] (run 2, dose range 1); more than 80 µM in test [1] (run 3, dose range 1); > 80 µM (inactive) in test [2] (dose range 1); more than 80 µM in test [2] (setting [5]). In addition, the IC50 in test [3] (CCR6, dose range 1) is 2.7 µM; in test [3] (setting [6]) it was 3.67 µM; in test [3] (CCR6, run 2, dose range 1), 4.63 µM; in test [4] (CXCR6, dose range 1) it was 9.05 µM; in test [4] (setting [7]) it was 8.66 µM; in test [4] (CXCR6, run 1, dose range 2) it was 4.31 µM. Also, the 50% inhibitory concentration (IC50) amounted to 14.5 µM in test [4] (CXCR6, run 2, dose range 1) and 6.79 µM in test [4] (CXCR6, run 2, dose range 2).

In the case of `Cc1cnc(C(=O)Nc2cccc3cccnc23)cn1`, the IC50 was more than 80 µM in test [1] (setting [5]); more than 80 µM in test [1] (run 2, dose range 1); more than 80 µM in test [1] (run 3, dose range 1); > 80 µM (inactive) in test [2] (dose range 1); more than 80 µM in test [2] (setting [5]); 28.6 µM in test [3] (CCR6, dose range 1). Further, the IC50 in test [3] (setting [6]) is 28.6 µM; in test [3] (CCR6, run 2, dose range 1) it was more than 80 µM; in test [4] (setting [7]), 22.4 µM; in test [4] (CXCR6, run 1, dose range 2) it was 6.94 µM; in test [4] (CXCR6, run 2, dose range 1) it was more than 80 µM; in test [4] (CXCR6, run 2, dose range 2), 12 µM. The IC50 result in test [4] (CXCR6, dose range 1) was “inactive”.

`Cc1nnc(Sc2cc(NCCCO)c([N+](=O)[O-])c3nonc23)s1`: the IC50 in test [1] (dose range 1) is 12.9 µM; in test [1] (setting [5]), 11.6 µM; in test [1] (run 2, dose range 1) it was 11.3 µM; in test [1] (run 3, dose range 1), 10.6 µM; in test [2] (dose range 1), > 80 µM (inactive); in test [2] (setting [5]), more than 80 µM. Further, the IC50 is 8.94 µM in test [3] (CCR6, dose range 1); 8.16 µM in test [3] (setting [6]); 7.38 µM in test [3] (CCR6, run 2, dose range 1); 7.25 µM in test [4] (CXCR6, dose range 1); 7.84 µM in test [4] (setting [7]); 8.37 µM in test [4] (CXCR6, run 1, dose range 2). The concentration for half-maximal inhibition (IC50) in test [4] (CXCR6, run 2, dose range 1) was found to be 9.54 µM; in test [4] (CXCR6, run 2, dose range 2), 6.2 µM.

For `O=C1C(Cc2ccccc2)Nc2ncnc(N3CCN(c4ccccc4)CC3)c2N1Cc1ccc(Cl)cc1` (configuration not stated), the IC50 entry in test [1] (dose range 1) was “inactive”. Besides, the concentration for half-maximal inhibition (IC50) in test [1] (setting [5]) is 20.2 µM; in test [1] (run 2, dose range 1), 5.81 µM; in test [1] (run 3, dose range 1) it was 53.2 µM; in test [2] (dose range 1) it was > 80 µM (inactive); in test [2] (setting [5]), more than 80 µM; in test [3] (CCR6, dose range 1), 3.28 µM. Further, the IC50 in test [3] (setting [6]) is 2.67 µM; in test [3] (CCR6, run 2, dose range 1), 2.06 µM; in test [4] (CXCR6, dose range 1) it was 2.01 µM; in test [4] (setting [7]), 1.94 µM; in test [4] (CXCR6, run 1, dose range 2) it was 1.77 µM; in test [4] (CXCR6, run 2, dose range 1), 2.04 µM. In addition, the IC50 in test [4] (CXCR6, run 2, dose range 2) came to 1.94 µM.

With `CC(=O)/C(=N\Nc1ccc(Cl)cc1Cl)Sc1cccc2cccnc12`, the half-maximal inhibitory concentration (IC50) is 2.83 µM in test [1] (dose range 1); 3.28 µM in test [1] (setting [5]); 3.64 µM in test [1] (run 2, dose range 1); 3.36 µM in test [1] (run 3, dose range 1); > 80 µM (inactive) in test [2] (dose range 1); more than 80 µM in test [2] (setting [5]). In addition, the 50% inhibitory concentration (IC50) in test [3] (CCR6, dose range 1) was 3.37 µM; in test [3] (setting [6]), 3.94 µM; in test [3] (CCR6, run 2, dose range 1), 4.51 µM; in test [4] (CXCR6, dose range 1), 5.34 µM; in test [4] (setting [7]), 4.07 µM; in test [4] (CXCR6, run 1, dose range 2), 2.66 µM. Moreover, the IC50 in test [4] (CXCR6, run 2, dose range 1) came to 5.55 µM; in test [4] (CXCR6, run 2, dose range 2) it was 2.73 µM.

In the case of `CCn1c(=O)c([N+](=O)[O-])c(Cl)c2ccccc21`, the concentration for half-maximal inhibition (IC50) in test [1] (dose range 1) was 31.9 µM; in test [1] (setting [5]), 35.8 µM; in test [1] (run 2, dose range 1), 21.3 µM; in test [1] (run 3, dose range 1), 54.3 µM; in test [2] (dose range 1), > 80 µM (inactive); in test [2] (setting [5]) it was more than 80 µM. For the same molecule, the IC50 in test [3] (CCR6, dose range 1) was 3.29 µM; in test [3] (setting [6]), 3.6 µM; in test [3] (CCR6, run 2, dose range 1) it was 3.91 µM; in test [4] (CXCR6, dose range 1), 4.19 µM; in test [4] (setting [7]) it was 7.64 µM; in test [4] (CXCR6, run 1, dose range 2), 4.43 µM. Besides, the IC50 came to 17.8 µM in test [4] (CXCR6, run 2, dose range 1) and 4.13 µM in test [4] (CXCR6, run 2, dose range 2).
